Drawing on ChEMBL document CHEMBL5223175, “Discovery of novel 2-oximino-2-indolylacetamide derivatives as potent anticancer agents capable of inducing cell autophagy and ferroptosis” (Bioorg Med Chem, 2023), this text covers Activity, IC50 and viability for one compound.

Each structure is given as a SMILES string. Activity calls are given as the source filed them. The calls are words filed in the database; no cut-off is given here.

The subject of data set [1] is 5-8F. Description: Induction of ferroptosis in human 5-8F cells assessed as appearance of […] at 30 uM incubated for 48 hrs by TEM analysis. The data set is classed as functional, cell-based.
Data set [2] concerns 5-8F. Description: Induction of ferroptosis in human 5-8F cells assessed as appearance of widened gabs between cristae at 30 uM incubated for 48 hrs by TEM analysis. The format is functional, cell-based.
Data set [3] has as its system 5-8F. Description: Induction of autophagy in human 5-8F cells assessed as appearance of autophagic vacuoles at 30 uM incubated for 48 hrs by TEM analysis. The data set is classed as functional, cell-based.
Data set [4] deals with 5-8F. The data set can be described thus: Induction of apoptosis in human 5-8F cells assessed as upregulation of Bax expression at 10 to 30 uM incubated for 48 hrs by Western blotting analysis. The data set is classed as functional, cell-based. The conditions noted are these: dose 10-30 µM.
Data set [5] concerns 5-8F. The data set can be described thus: Antiproliferative activity against human 5-8F cells assessed as reduction in Ki67 expression at 10 to 30 uM by Western blotting analysis. The format is functional, cell-based. The conditions noted are these: dose 10-30 µM.
Data set [6] has as its system 5-8F. The data set can be described thus: Induction of ferroptosis in human 5-8F cells assessed as appearance of small swollen contractile punctate structures at 30 uM incubated for 48 hrs by MitoTracker Red staining based confocal microscopic analysis. The format is functional, cell-based.
Data set [7] relates to 5-8F. Description: Induction of apoptosis in human 5-8F cells assessed as increase in dead cells incubated for 48 hrs by microscopic analysis. The format is functional, cell-based. The conditions noted are these: dose 10-30 µM.
For data set [8], the system named is CAL-27. The data set can be described thus: Antiproliferative activity against human CAL-27 cells assessed as reduction in cell viability incubated for 72 hrs by CCK-8 assay. The format is functional, cell-based. To be noted: CAL-27, 72 h.
The test system of data set [9] is 5-8F. The data set can be described thus: Induction of ROS generation in human 5-8F cells at 30 uM pretreated with NAC for 2 hrs followed by compound addition and measured after 48 hrs by DCFH-DA staining based flow cytometry analysis. The data set is classed as functional, cell-based.
Data set [10] deals with 5-8F. Description: Antiproliferative activity against human 5-8F cells assessed as cell viability at 80 uM incubated for 72 hrs by CCK-8 assay. The conditions noted are these: read-out: Activity. The data set is classed as functional.
Data set [11] relates to 5-8F. The data set can be described thus: Induction of ferroptosis in human 5-8F cells assessed as decrease in GPx4 expression at 10 to 30 uM incubated for 48 hrs in presence of Era by Western blotting analysis. The format is functional, cell-based. To be noted: dose 10-30 µM.
Data set [12] concerns 5-8F. Description: Antitumor activity against human 5-8F cells xenografted in BALB/c mouse assessed as tumor growth inhibition at 10 to 20 mg/kg, ip administered daily. The format is functional, organism-based. The conditions noted are these: dose 10-20 mg/kg.
The subject of data set [13] is CAL-27. Description: Antiproliferative activity against human CAL-27 cells assessed as reduction in cell viability at 5 to 40 uM incubated for 48 hrs by CCK-8 assay. The format is functional, cell-based. To be noted: dose 5-40 µM.
Data set [14] relates to 5-8F. Description: Induction of ferroptosis in human 5-8F cells assessed as appearance of pseudo inclusion bodies at 30 uM incubated for 48 hrs by TEM analysis. The data set is classed as functional, cell-based.
Data set [15] relates to 5-8F. Description: Induction of ferroptosis in human 5-8F cells assessed as decrease in GPx4 expression at 10 to 30 uM incubated for 48 hrs by Western blotting analysis. The data set is classed as functional, cell-based. The conditions noted are these: dose 10-30 µM.
Data set [16] deals with 5-8F. The data set can be described thus: Downregulation of p-AKT expression in human 5-8F cells at 10 to 30 uM by Western blotting analysis. The data set is classed as functional, cell-based. The conditions noted are these: dose 10-30 µM.
For data set [17], the system named is 5-8F. Description: Downregulation of p-mTOR expression in human 5-8F cells at 10 to 30 uM by Western blotting analysis. To be noted: dose 10-30 µM. The format is functional, cell-based.
Data set [18] deals with 5-8F. The data set can be described thus: Antiproliferative activity against human 5-8F cells assessed as reduction in cell viability incubated for 72 hrs by CCK-8 assay. The data set is classed as functional, cell-based.
Data set [19] can be described thus: Toxicity in BALB/c mouse xenografted with human 5-8F cells assessed as change in heart morphology at 10 to 20 mg/kg, ip administered daily by H and E staining based assay. The data set is classed as organism-based. The conditions noted are these: in vivo, dose 10-20 mg/kg.
The test system of data set [20] is 5-8F. The data set can be described thus: Induction of autophagy in human 5-8F cells assessed as increase in LC3 puncta accumulation at 30 uM incubated for 48 hrs by confocal microscopy analysis. The format is functional, cell-based.
In data set [21] the test system is 5-8F. The data set can be described thus: Upregulation of p38 MAPK phosphorylation in human 5-8F cells at 10 to 30 uM by Western blotting analysis. To be noted: dose 10-30 µM. The format is functional, cell-based.

With `Cn1cc(/C(=N\O)C(=O)Nc2ccc(Cl)cc2)c2ccccc21`, the outcome in the data set on 5-8F [1], with 5-8F [2], in the data set with 5-8F [3], in the data set on 5-8F [4], with 5-8F [5] and with 5-8F [6] was Active. Further, the result with 5-8F [11], with 5-8F [12], in the data set with CAL-27 [13], with 5-8F [14], with 5-8F [15] and with 5-8F [16] was Active. For the same compound, the result in the data set on 5-8F [17], in the data set on 5-8F [20] and with 5-8F [21] was Active. Further, the Activity result with 5-8F [7] was “Dose-Dependent Effect”; in data set [19] it was “Non-Toxic”. Moreover, the IC50 in the data set with CAL-27 [8] was determined as 13.7 µM; in the data set with 5-8F [18], 9.43 µM. Besides, the result in the data set with 5-8F [9] was inactive. Besides, the viability at 80 µM in the data set on 5-8F [10] was 7.8%.
